Test [1] concerns the target DYRK1B (Homo sapiens (Human), UniProt Q9Y463). Briefly: DYRK1B kinase assay (HotSpot, Reaction Biology). It counts as biochemical.
For test [2], the target named is DYRK1A (Homo sapiens (Human), UniProt Q13627). Briefly: DYRK1A kinase assay (HotSpot, Reaction Biology). Conditions: purified recombinant kinase, 10 μM ATP, room temperature 120 min. Format: biochemical.
Where [3] appears, read: purified recombinant kinase, 10 μM ATP, room temperature 120 min.

Each structure is given as a SMILES string. Read-outs that look alike come from different tables or passages of the source.

DYRK1B, sequence (Q9Y463 whole entry): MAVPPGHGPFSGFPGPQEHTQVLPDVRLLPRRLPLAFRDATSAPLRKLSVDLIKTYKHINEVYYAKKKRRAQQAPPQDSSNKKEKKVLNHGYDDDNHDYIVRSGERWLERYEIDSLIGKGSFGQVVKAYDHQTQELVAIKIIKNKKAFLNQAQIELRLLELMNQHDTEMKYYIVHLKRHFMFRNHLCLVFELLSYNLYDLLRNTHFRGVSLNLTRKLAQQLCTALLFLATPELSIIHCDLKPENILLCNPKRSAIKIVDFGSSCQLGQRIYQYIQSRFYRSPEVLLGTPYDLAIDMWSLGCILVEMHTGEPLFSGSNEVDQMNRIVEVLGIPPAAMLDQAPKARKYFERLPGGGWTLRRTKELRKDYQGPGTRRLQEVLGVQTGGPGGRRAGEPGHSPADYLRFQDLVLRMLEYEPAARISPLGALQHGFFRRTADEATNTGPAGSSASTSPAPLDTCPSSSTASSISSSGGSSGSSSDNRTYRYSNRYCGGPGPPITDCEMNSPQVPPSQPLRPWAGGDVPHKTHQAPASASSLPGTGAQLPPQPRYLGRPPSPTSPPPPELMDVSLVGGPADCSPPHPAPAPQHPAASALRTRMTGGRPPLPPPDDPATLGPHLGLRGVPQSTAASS

Consider `COC(=N)c1nc2ccc3ncnc(Nc4ccc(F)cc4F)c3c2s1` [Compound 78, Methyl 9-(2,4-difluorophenylamino)thiazolo[5,4-f]quinazoline-2-carbimidate], for which the IC50 – broadly, the concentration at which inhibition is half-maximal – was determined as 1.07 nM in test [1] (setting [3]) and 0.94 nM in test [2].

On to `COC(=N)c1nc2ccc3ncnc(Nc4ccc(O)c(F)c4)c3c2s1` [Compound 79, Methyl 9-(3-fluoro-4-hydroxyphenylamino)thiazolo[5,4-f]quinazoline-2-carbimidate], for which the half-maximal inhibitory concentration (IC50) was 11 nM in test [1] (setting [3]) and 8.63 nM in test [2].

In the case of `COC(=N)c1nc2ccc3ncnc(Nc4ccc(C(F)(F)F)cc4)c3c2s1` [Compound 80, Methyl 9-(4-(trifluoromethyl)phenylamino)thiazolo[5,4-f]quinazoline-2-carbimidate], the IC50 amounted to 25.2 nM in test [1] (setting [3]) and 18.3 nM in test [2].

Turning to `CCOC(=N)c1nc2ccc3ncnc(Nc4ccc(Br)cc4F)c3c2s1` [Compound 81, Ethyl 9-(4-bromo-2-fluorophenylamino)thiazolo[5,4-f]quinazoline-2-carbimidate], the results for the IC50 in test [1] (setting [3]) and in test [2] were 34.4 nM and 33.2 nM, respectively.

For the compound `CCOC(=N)c1nc2ccc3ncnc(Nc4ccc5c(c4)OCO5)c3c2s1` [Compound 82, Ethyl 9-(benzo[d][1,3]dioxol-5-ylamino)thiazolo[5,4-j]quinazoline-2-carbimidate], the IC50 in test [1] (setting [3]) was 7.72 nM; in test [2], 6.02 nM.

As for `N=C(OCc1ccccc1)c1nc2ccc3ncnc(Nc4ccc5c(c4)OCO5)c3c2s1` [Compound 83, benzyl 9-(benzo[d][1,3]dioxol-5-ylamino)thiazolo[5,4-f]quinazoline-2-carbimidate], the IC50 in test [1] (setting [3]) was found to be 37.3 nM; in test [2] it was 33.9 nM.

`CC(C)OC(=N)c1nc2ccc3ncnc(Nc4ccc5c(c4)OCO5)c3c2s1` [Compound 85, isopropyl 9-(benzo[d][1,3]dioxol-5-ylamino)thiazolo[5,4-f]quinazoline-2-carbimidate]: the values for the IC50 in test [1] and in test [2] were 218 nM and 125 nM, respectively.

For the compound `NC(=O)c1nc2ccc3ncnc(Nc4ccc(F)cc4Br)c3c2s1` [Compound 86, 9-((2-bromo-4-fluorophenyl)amino)thiazolo[5,4-f]quinazoline-2-carboxamide], the IC50 in test [1] (setting [3]) was determined as 31.5 nM; in test [2], 26.2 nM.

Turning to `NC(=O)c1nc2ccc3ncnc(Nc4ccc(Cl)cc4Cl)c3c2s1` [Compound 87, 9-((2,4-dichlorophenyl)amino)thiazolo[5,4-f]quinazoline-2-carboxamide], the values for the IC50 in test [1] (setting [3]) and in test [2] were 43.4 nM and 34.9 nM, respectively.

On to `CCCCOC(=N)c1nc2ccc3ncnc(Nc4ccc(Cl)cc4Cl)c3c2s1` [Compound 88, butyl 9-((2,4-dichlorophenyl)amino)thiazolo[5,4-f]quinazoline-2-carbimidate], for which the half-maximal inhibitory concentration (IC50) in test [1] (setting [3]) was 69.4 nM; in test [2], 47.5 nM.

In the case of `COC(=O)c1nc2ccc3ncnc(Nc4ccc(Cl)cc4Cl)c3c2s1` [Compound 89, methyl 9-((2,4-dichlorophenyl)amino)thiazolo[5,4-f]quinazoline-2-carboxylate], the IC50 came to 7.7 nM in test [1] (setting [3]) and 5.1 nM in test [2].

Consider `CC(C)(C)CNc1ncnc2ccc(-c3ccc4c(c3)OCO4)cc12` [NCGC-00189310, reference compound], for which the IC50 came out at 20.6 nM in test [1] (setting [3]) and 2.2 nM in test [2].

The record behind these values is patent US9446044B2, “DYRK1 inhibitors and uses thereof” (DIAXONHIT, priority 2011, dated 2016).
